ChEMBL document CHEMBL1149391, “SAR and mode of action of novel non-nucleoside inhibitors of hepatitis C NS5b RNA polymerase” (J Med Chem, 2006)
Calls of active or inactive are those of the source. The calls are words filed in the database; no cut-off is given here.

Tests used:
ECV-304 = test: Cytotoxicity in E304 cells; type: functional, cell-based; details: Homo sapiens
HFF = test: Cytotoxicity in HFF cells; type: functional, cell-based; details: Homo sapiens
[1] = target: RNA-directed RNA polymerase (Hepacivirus hominis, UniProt O39930); test: Inhibitory activity against HCV delta 21 NS5b RNA polymerase
[2] = Tmax in rat at 4.3 mg/kg, po; type: ADME, organism-based; set-up: dose 4.3 mg/kg, route oral; details: Sprague-Dawley, in vivo
[3] = Cmax in rat at 4.3 mg/kg, po; type: ADME, organism-based; set-up: dose 4.3 mg/kg, route oral; details: Sprague-Dawley, in vivo
[4] = Half life in rat at 0.86 mg/kg, iv; type: ADME, organism-based; set-up: dose 0.86 mg/kg, route intravenous; details: Sprague-Dawley, in vivo
[5] = Plasma clearance in rat at 0.86 mg/kg, iv; type: ADME, organism-based; set-up: dose 0.86 mg/kg, route intravenous; details: Sprague-Dawley
[6] = AUC(0-8h) in rat at 4.3 mg/kg, po; type: ADME, organism-based; set-up: time < 8 hr, dose 4.3 mg/kg, route oral; details: Sprague-Dawley, plasma
[7] = Volume of distribution in rat at 0.86 mg/kg, iv; type: ADME, organism-based; set-up: dose 0.86 mg/kg, route intravenous; details: Sprague-Dawley, in vivo, read-out: Vdss
[8] = Tmax in rat at 4.1 mg/kg, po; type: ADME, organism-based; set-up: dose 4.1 mg/kg, route oral; details: Sprague-Dawley, in vivo
[9] = Plasma clearance in rat at 0.16 mg/kg, iv; type: ADME, organism-based; set-up: dose 0.16 mg/kg, route intravenous; details: Sprague-Dawley
[10] = Inhibition of Calpain
[11] = AUC(0-8h) in rat at 4.1 mg/kg, po; type: ADME, organism-based; set-up: time < 8 hr, dose 4.1 mg/kg, route oral; details: Sprague-Dawley, plasma
[12] = target: Aldo-keto reductase family 1 member B1 (Homo sapiens) (UniProt P15121); test: Inhibition of aldose reductase
[13] = Cmax in rat at 4.1 mg/kg, po; type: ADME, organism-based; set-up: dose 4.1 mg/kg, route oral; details: Sprague-Dawley, in vivo
[14] = target: Cathepsin B (Homo sapiens) (UniProt P07858); test: Inhibition of Cathepsin B
Tubulin (Homo sapiens) = Tubulin (Homo sapiens) (UniProt P68371+Q9H4B7+P0DPH7+P68366+Q13509+Q71U36+P04350+Q3ZCM7+P07437+P68363+Q9BQE3+Q6PEY2+Q13885+Q9BVA1+Q9BUF5); test: Effect on tubulin polymerization; type: functional
[15] = Half life in rat at 0.16 mg/kg, iv; type: ADME, organism-based; set-up: dose 0.16 mg/kg, route intravenous; details: Sprague-Dawley, in vivo
[16] = Volume of distribution in rat at 0.16 mg/kg, iv; type: ADME, organism-based; set-up: dose 0.16 mg/kg, route intravenous; details: Sprague-Dawley, in vivo, read-out: Vdss
Homo sapiens = species on record: Homo sapiens; test: Inhibition of human Caspase (caspase 1, caspase 3, caspase 6, caspase 7, caspase 8)
[17] = target: T1, Avian myoblastosis virus polyprotein II (Avian myeloblastosis virus, UniProt Q86831); test: Inhibitory activity against AMV Reverse transcriptase
T1 sequence (Q86831 whole entry): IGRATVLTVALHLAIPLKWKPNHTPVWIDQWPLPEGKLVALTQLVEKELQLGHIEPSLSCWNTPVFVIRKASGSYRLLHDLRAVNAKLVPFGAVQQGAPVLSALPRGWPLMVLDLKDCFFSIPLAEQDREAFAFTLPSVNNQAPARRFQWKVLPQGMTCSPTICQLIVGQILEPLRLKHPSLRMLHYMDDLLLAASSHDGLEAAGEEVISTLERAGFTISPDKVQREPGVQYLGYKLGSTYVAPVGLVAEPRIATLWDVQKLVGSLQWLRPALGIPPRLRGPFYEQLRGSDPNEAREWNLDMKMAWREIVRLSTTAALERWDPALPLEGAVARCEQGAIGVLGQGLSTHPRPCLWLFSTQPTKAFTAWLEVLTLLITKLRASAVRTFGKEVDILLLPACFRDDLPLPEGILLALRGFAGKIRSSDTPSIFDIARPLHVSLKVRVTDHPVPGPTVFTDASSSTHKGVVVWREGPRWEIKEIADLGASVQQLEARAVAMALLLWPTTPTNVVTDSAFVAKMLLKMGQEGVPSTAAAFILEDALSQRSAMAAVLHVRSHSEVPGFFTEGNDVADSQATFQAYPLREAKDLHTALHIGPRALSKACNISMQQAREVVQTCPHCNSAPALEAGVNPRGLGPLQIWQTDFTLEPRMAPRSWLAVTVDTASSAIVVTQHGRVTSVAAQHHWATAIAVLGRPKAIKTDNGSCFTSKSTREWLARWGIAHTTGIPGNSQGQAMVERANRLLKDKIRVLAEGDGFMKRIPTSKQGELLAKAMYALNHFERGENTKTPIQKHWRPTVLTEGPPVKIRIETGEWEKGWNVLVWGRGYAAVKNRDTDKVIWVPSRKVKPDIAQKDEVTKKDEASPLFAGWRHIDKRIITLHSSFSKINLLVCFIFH

Genome polyprotein = Genome polyprotein (Bovine viral diarrhea virus (strain CP7) (BVDV) (Mucosal diseasevirus), UniProt Q96662); test: Inhibitory activity against BVDV NS5b RNA polymerase; set-up: species or system Bovine viral diarrhea virus 1
Sequence of Genome polyprotein (Q96662 3189-3907 limits assumed): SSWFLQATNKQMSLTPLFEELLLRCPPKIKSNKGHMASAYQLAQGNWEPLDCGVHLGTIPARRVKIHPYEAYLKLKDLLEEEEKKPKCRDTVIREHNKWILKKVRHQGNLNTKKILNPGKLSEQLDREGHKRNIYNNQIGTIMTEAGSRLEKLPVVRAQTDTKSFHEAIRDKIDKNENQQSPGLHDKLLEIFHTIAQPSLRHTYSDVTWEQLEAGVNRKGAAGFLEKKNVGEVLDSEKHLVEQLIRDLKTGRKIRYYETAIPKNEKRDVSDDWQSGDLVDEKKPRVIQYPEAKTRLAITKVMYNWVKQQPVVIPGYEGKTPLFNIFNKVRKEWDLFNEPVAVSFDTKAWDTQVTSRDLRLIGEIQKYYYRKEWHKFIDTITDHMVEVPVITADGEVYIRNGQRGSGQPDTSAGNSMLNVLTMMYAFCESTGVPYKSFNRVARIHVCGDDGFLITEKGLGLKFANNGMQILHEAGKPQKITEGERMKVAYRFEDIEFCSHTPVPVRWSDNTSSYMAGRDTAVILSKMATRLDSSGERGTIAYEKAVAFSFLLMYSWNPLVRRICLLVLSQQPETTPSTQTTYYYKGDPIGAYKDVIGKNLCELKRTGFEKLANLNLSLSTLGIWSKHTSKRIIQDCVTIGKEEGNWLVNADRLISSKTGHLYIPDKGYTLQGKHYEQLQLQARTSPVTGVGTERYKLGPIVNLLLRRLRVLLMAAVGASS

Sequence of RNA-directed RNA polymerase (O39930 whole entry): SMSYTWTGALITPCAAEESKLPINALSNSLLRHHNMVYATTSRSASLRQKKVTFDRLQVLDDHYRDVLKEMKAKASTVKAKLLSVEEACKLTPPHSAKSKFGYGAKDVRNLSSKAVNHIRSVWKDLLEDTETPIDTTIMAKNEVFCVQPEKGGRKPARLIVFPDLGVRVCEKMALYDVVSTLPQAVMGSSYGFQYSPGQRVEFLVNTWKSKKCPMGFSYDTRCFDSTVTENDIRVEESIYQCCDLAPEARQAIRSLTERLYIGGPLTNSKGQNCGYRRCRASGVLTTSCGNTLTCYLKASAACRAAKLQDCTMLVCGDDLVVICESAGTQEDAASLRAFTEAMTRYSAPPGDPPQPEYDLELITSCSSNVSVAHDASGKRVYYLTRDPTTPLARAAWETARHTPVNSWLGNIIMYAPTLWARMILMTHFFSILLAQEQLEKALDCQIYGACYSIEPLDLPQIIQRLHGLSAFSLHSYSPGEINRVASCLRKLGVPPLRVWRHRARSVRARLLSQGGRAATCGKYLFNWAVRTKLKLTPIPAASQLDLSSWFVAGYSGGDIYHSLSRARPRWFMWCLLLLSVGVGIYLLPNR

SMILES	IC50 (ECV-304)	IC50 (HFF)	IC50 [1]	also measured
O=C1/C(=C/c2ccccc2)SC(=S)N1NS(=O)(=O)c1ccccc1	> 50 µM	> 100 µM	30 µM	
O=C1C(Cc2ccc(Cl)c(Cl)c2)SC(=S)N1NS(=O)(=O)c1ccccc1 (stereo unspecified)			11 µM	
Cc1ccc(/C=C2\SC(=S)N(NS(=O)(=O)c3ccccc3)C2=O)cc1	> 50 µM	> 100 µM	10 µM	
Cc1ccc(/C=C2\SC(=S)N(N)C2=O)cc1			> 30 µM	
O=C1/C(=C/c2ccc(Cl)cc2)SC(=S)N1Cc1ccccc1			> 30 µM	
NN1C(=O)/C(=C/c2ccc([N+](=O)[O-])cc2)SC1=S			1 µM	
CN1C(=O)/C(=C/c2ccc([N+](=O)[O-])cc2)SC1=S			30 µM	
O=C1/C(=C/c2ccc(Cl)c(Cl)c2)SC(=S)N1NS(=O)(=O)c1cccs1	> 50 µM	> 100 µM	0.2 µM	Tmax [2]: 1.7 h; Cmax [3]: 3970 ng/mL; half-life [4]: 198 min; clearance [5]: 2.83 mL/min/kg; AUC(0-t) at 8 h [6]: 25600 ng·h/mL; Vd [7]: 0.7 L/kg
CS(=O)(=O)NN1C(=O)/C(=C/c2ccc(Cl)c(Cl)c2)SC1=S			2 µM	
O=C1/C(=C/c2cc(F)c(F)cc2F)SC(=S)N1NS(=O)(=O)c1ccccc1	> 50 µM	> 100 µM	0.2 µM	
O=C1/C(=C/c2ccc(-c3cc(C(F)(F)F)ccc3Cl)o2)SC(=S)N1NS(=O)(=O)c1ccccc1			0.1 µM	
O=S(=O)(NN1C(=S)SC(Cc2ccc(Cl)c(Cl)c2)C1O)c1ccccc1 (stereo unspecified)			27 µM	
O=C(NN1C(=O)/C(=C/c2ccc(Cl)cc2)SC1=S)c1ccccc1			> 30 µM	
COc1cccc(/C=C2\SC(=S)N(NS(=O)(=O)c3ccccc3)C2=O)c1	> 50 µM	> 100 µM	5 µM	
COc1ccc(/C=C2\SC(=S)N(N)C2=O)cc1			> 30 µM	
O=C1NC(=S)S/C1=C\c1ccc(Cl)cc1			> 30 µM	
O=C1NC(=S)S/C1=C\c1ccc([N+](=O)[O-])cc1			22 µM	
O=C1/C(=C/c2ccc3ccccc3c2)SC(=S)N1NS(=O)(=O)c1ccccc1	> 50 µM	> 100 µM	3 µM	
NN1C(=O)/C(=C/c2ccc(F)cc2)SC1=S			7 µM	
C/C(=C1/SC(=S)N(NS(=O)(=O)c2ccccc2)C1=O)c1ccc(Cl)c(Cl)c1			0.6 µM	
O=C1/C(=C/c2ccc(C(F)(F)F)cc2)SC(=S)N1NS(=O)(=O)c1ccccc1	> 50 µM	> 100 µM	1 µM	
COc1ccc(/C=C2\SC(=S)N(NS(=O)(=O)c3ccccc3)C2=O)cc1	> 50 µM	> 100 µM	5 µM	
O=C1/C(=C/c2ccc3c(c2)OCO3)SC(=S)N1NS(=O)(=O)c1ccccc1	> 50 µM	> 100 µM	15 µM	
O=C1/C(=C/c2ccc([N+](=O)[O-])cc2)SC(=S)N1NS(=O)(=O)c1ccccc1	> 50 µM	> 100 µM	2 µM	

SMILES	IC50 (ECV-304)	IC50 (HFF)	IC50 [1]	also measured
O=C1/C(=C/c2ccc(F)cc2F)SC(=S)N1NS(=O)(=O)c1ccccc1	> 50 µM	> 100 µM	3 µM	
Cc1ccc(/C=C2\SC(=S)N(NS(=O)(=O)c3ccccc3)C2=O)cc1C	> 50 µM	> 100 µM	8 µM	
CCN1C(=O)/C(=C/c2ccc(Cl)cc2)SC1=S			> 30 µM	
O=C1/C(=C/c2ccc(Cl)c(Cl)c2)SC(=S)N1NS(=O)(=O)c1ccccc1	> 50 µM	> 100 µM	0.2 µM	Tmax [8]: 3.3 h; clearance [9]: 0.125 mL/min/kg; Activity [10]: inactive; AUC(0-t) at 8 h [11]: 25500 ng·h/mL; Activity [12]: inactive; Cmax [13]: 3740 ng/mL; Activity [14]: inactive; Activity (Tubulin (Homo sapiens)): inactive; half-life [15]: 552 min; Vd [16]: 0.09 L/kg; Activity (Homo sapiens): inactive
O=C1/C(=C/c2cccnc2)SC(=S)N1NS(=O)(=O)c1ccccc1	> 50 µM	> 100 µM	15 µM	
NN1C(=O)/C(=C/c2ccc(Cl)cc2)SC1=S			16 µM	
N#Cc1ccc(/C=C2\SC(=S)N(N)C2=O)cc1			7 µM	
NN1C(=O)/C(=C/c2ccccc2)SC1=S			> 30 µM	
O=C1/C(=C/c2ccc(Br)c(Br)c2)SC(=S)N1NS(=O)(=O)c1ccccc1	> 50 µM	> 100 µM	0.2 µM	
CN(C)c1ccc(/C=C2\SC(=S)N(N)C2=O)cc1			> 30 µM	
O=C1/C(=C/c2ccc(Cl)cc2)SC(=S)N1NS(=O)(=O)c1ccccc1			1.5 µM	IC50 [17]: > 30 µM; IC50 (Genome polyprotein): > 30 µM
O=C1/C(=C/c2cc(F)c(F)c(F)c2)SC(=S)N1NS(=O)(=O)c1ccccc1	> 50 µM	> 100 µM	1 µM	
O=C1/C(=C/c2ccc(F)cc2)SC(=S)N1NS(=O)(=O)c1ccccc1	> 50 µM	> 100 µM	1 µM	
O=C1/C(=C/c2ccc(Br)cc2)SC(=S)N1NS(=O)(=O)c1ccccc1	> 50 µM	> 100 µM	0.7 µM	
CN1C(=O)/C(=C/c2ccc(Cl)cc2)SC1=S			> 30 µM	
O=C1/C(=C/c2ccccc2F)SC(=S)N1NS(=O)(=O)c1ccccc1	> 50 µM	> 100 µM	6.5 µM	
O=C1/C(=C/c2ccc(Cl)c(F)c2)SC(=S)N1NS(=O)(=O)c1ccccc1	> 50 µM	> 100 µM	1 µM	
Cc1cccc(/C=C2\SC(=S)N(NS(=O)(=O)c3ccccc3)C2=O)c1	> 50 µM	> 100 µM	25 µM	
CC(/C=C1\SC(=S)N(NS(=O)(=O)c2ccccc2)C1=O)=C\c1ccccc1	> 50 µM	> 100 µM	0.2 µM	
O=C1/C(=C/c2cc(F)ccc2F)SC(=S)N1NS(=O)(=O)c1ccccc1	> 50 µM	> 100 µM	1.7 µM	
N#Cc1ccc(/C=C2\SC(=S)N(NS(=O)(=O)c3ccccc3)C2=O)cc1	> 50 µM	> 100 µM	0.9 µM	
CCCCS(=O)(=O)NN1C(=O)/C(=C/c2ccc(Cl)c(Cl)c2)SC1=S			0.7 µM	
O=C1/C(=C/c2ccc(F)c(F)c2F)SC(=S)N1NS(=O)(=O)c1ccccc1	> 50 µM	> 100 µM	1.9 µM	
